Experimental data: ChEMBL document CHEMBL1201862, “PubChem BioAssay data set” (2004)
Activity calls are given as the source filed them.

Experiments:
[1] = biological target: T1, Heat shock factor protein 1 (Mus musculus, UniProt P38532); test: decrease of HSF1-responsive luciferase luminescence – cell-based, NIH3T3, dose retest, confirmation (AID 2382); assay type: functional;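 note: NIH3T3 fibroblasts with HSF1-driven luciferase reporter stressed by proteasome inhibitor MG132; luminescence from HSF1-driven luciferase expression after 8 hours of MG132 stress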
T1 sequence (P38532 whole entry): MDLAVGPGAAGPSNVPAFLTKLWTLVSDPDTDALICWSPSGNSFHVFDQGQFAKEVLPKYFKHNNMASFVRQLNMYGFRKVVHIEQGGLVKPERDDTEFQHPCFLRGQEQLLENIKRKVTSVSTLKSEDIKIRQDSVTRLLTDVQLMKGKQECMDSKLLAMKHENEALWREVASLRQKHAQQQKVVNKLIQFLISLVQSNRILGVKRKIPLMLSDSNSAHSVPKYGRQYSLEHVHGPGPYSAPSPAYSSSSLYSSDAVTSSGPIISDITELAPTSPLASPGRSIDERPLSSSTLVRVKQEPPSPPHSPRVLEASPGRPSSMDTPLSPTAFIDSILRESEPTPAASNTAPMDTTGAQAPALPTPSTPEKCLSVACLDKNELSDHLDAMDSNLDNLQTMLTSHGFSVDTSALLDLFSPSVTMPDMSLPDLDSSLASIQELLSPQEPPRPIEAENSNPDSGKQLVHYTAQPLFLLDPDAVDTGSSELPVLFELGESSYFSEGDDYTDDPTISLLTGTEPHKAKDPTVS

[2] = biological target: T2, Polyadenylate-binding protein 1 (Homo sapiens, UniProt P11940); test: MLLE binding blockers, Cy5 peptide tracer – biochemical, fluorescence polarization, Cy5-PAM2 peptide, secondary, miRNA deadenylation inhibitor project, dose response (AID 602260); assay type: functional; conditions: read-out: IC50_Mean
[3] = reduction of Shn3 3'UTR-driven luciferase in osteoblasts – cell-based, Clone20 osteoblasts, firefly luciferase, cherry-picked, dose response (AID 624132); assay type: functional;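 note: firefly luciferase luminescence from reporter carrying the Shn3 3'UTR in osteoblasts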
INS1 = test: INS-1E survival protection against cytokine death – cell-based, luminescence, retest, dose response (AID 449756); assay type: functional; conditions: Rattus norvegicus;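 note: cell death triggered by IL-1 beta plus TNF-alpha plus IFN-gamma mixture; protective hits raise ATP signal compared with cytokine alone wells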
Nonstructural protein 1 = Nonstructural protein 1 (Influenza A virus, UniProt Q194T2); assay type: functional, Influenza A virus (A/California/07/2009(H1N1))
[4] = biological target: T3, Mannose-6-phosphate isomerase (Homo sapiens, UniProt P34949); test: MPI enzyme activity inhibition – biochemical, fluorescence intensity, coupled assay, primary screen (AID 1209)
T3 sequence (P34949 whole entry): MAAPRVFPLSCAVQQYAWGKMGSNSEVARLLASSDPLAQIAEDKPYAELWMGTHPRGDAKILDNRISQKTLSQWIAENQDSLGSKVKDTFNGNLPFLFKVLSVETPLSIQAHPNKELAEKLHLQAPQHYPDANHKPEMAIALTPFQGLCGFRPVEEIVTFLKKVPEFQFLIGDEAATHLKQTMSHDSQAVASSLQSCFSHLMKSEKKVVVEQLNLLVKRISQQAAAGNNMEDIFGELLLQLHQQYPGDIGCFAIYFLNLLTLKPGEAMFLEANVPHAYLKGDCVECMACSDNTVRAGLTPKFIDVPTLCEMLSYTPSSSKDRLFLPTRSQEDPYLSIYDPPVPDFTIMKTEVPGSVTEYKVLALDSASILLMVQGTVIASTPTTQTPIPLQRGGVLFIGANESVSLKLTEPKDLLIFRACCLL

[5] = loss of viability in HepG2 cells – cell-based, CellTiter-Glo, cherry-picked, cytotoxicity control for Shn3 inhibitor project, dose response (AID 624134); assay type: functional
[6] = biological target: T2, Polyadenylate-binding protein 1; test: MLLE domain peptide-binding blockers, IC50 – biochemical, fluorescence polarization, FITC-PAM2 peptide, dose response (AID 602259); assay type: functional; conditions: read-out: IC50_Mean
[7] = non-specific 3'UTR reporter inhibition in Clone20-Shn3RL – cell-based, Renilla luciferase, cherry-picked, counter-screen for Shn3 inhibitor project, dose response (AID 624133); assay type: functional
[8] = biological target: T3, Mannose-6-phosphate isomerase; test: MPI inhibition at elevated mannose 6-phosphate – biochemical, fluorescence intensity, high mannose 6-phosphate, primary screen (AID 1220)
Bcl-2-like protein 10 = biological target: T4, Bcl-2-like protein 10 (Homo sapiens, UniProt Q9HD36); test: Bcl-B/TR3 peptide binding disruption – biochemical, fluorescence polarization, FITC-TR3 peptide, selectivity assay for Bfl-1 inhibitor project, primary screen (AID 748);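 note: fluorescence polarization from a fluorescein-labelled TR3 peptide binding purified Bcl-B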
T4 sequence (Q9HD36 whole entry): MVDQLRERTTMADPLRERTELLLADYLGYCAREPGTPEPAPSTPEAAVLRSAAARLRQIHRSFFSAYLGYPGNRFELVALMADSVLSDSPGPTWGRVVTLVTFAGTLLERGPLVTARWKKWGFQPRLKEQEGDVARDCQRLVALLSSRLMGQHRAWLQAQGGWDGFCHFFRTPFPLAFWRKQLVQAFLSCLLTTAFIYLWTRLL

[9] = biological target: Protein-tyrosine kinase 2-beta (Homo sapiens, UniProt Q14289);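 note: potency of inhibitors of PYK2 kinase phosphorylation of poly-GT substrate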
[10] = biological target: T5, Induced myeloid leukemia cell differentiation protein Mcl-1 (Homo sapiens, UniProt Q07820); assay type: functional
[11] = biological target: T5, Induced myeloid leukemia cell differentiation protein Mcl-1; test: blockers of MCL1 binding to BIM peptide – biochemical, fluorescence polarization, BIM-BH3 peptide, 1536-well, dose response (AID 2217)
Genome polyprotein = Genome polyprotein (dengue virus type 2, UniProt P29990); test: flavivirus cap methylation enzyme inhibition – biochemical, confirmation dose response, primary screen (AID 588689); assay type: functional
Bcl-2-like protein 1 = Bcl-2-like protein 1 (Homo sapiens, UniProt Q07817); test: blockers of BCLXL peptide binding – biochemical, fluorescence polarization, 1536-well, selectivity assay for MCL1 inhibitor project, dose response (AID 2218)
[12] = biological target: T1, Heat shock factor protein 1; test: enhancement of HSF1-driven luciferase signal – cell-based, NIH3T3, luminescence, dose retest, confirmation (AID 435004); assay type: functional;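 note: stress induced by proteasome inhibitor MG132 added 30 min after compound; luciferase reporter driven by HSF1 response element in NIH3T3 cells; actives raise luminescence as potentiators of the MG132 stress response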
Cytochrome P450 2D6 = Cytochrome P450 2D6 (Homo sapiens, UniProt P10635);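 note: CYP2D6 member of a cytochrome P450 panel assay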
[13] = biological target: T6, Tyrosine-protein phosphatase non-receptor type 7 (Homo sapiens, UniProt P35236); test: HePTP tyrosine phosphatase activity blockers – biochemical, absorbance, leukemia target, primary screen (AID 521); assay type: functional
T6 sequence (P35236 whole entry): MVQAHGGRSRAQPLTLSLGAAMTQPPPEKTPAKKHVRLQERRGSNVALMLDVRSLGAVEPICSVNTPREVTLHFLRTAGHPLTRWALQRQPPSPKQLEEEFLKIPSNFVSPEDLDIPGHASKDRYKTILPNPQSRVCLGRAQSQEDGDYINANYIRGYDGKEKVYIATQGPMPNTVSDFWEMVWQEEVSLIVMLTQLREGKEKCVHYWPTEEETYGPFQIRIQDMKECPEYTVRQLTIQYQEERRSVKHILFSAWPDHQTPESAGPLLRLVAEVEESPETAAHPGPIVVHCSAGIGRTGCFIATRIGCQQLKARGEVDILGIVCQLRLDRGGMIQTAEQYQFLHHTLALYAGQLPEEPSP

Estrogen receptor beta [14] = biological target: T7, Estrogen receptor beta (Homo sapiens, UniProt Q92731);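 note: recombinant ER-beta bound to coactivator SRC1 peptide in presence of estradiol agonist; inhibitors block coactivator peptide binding and lower the FRET signal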
Estrogen receptor beta [15] = biological target: T7, Estrogen receptor beta; test: blockers of SRC-3 recruitment to ERβ – biochemical, ELISA, streptavidin-HRP readout, orthogonal assay, confirmation (AID 1060)
[16] = HPDE-C7 pancreatic duct cell viability loss – fluorescence, HTS (AID 430); assay type: functional, cell-based; conditions: Homo sapiens
[17] = viability loss of HPDE-C7K cells – cell-based, fluorescence, HTS, primary screen (AID 431); assay type: functional; conditions: Homo sapiens
Prothrombin = Prothrombin (Bos taurus, UniProt P00735); test: thrombin protease inhibitors – biochemical, fluorescence polarization, uHTS hits, dose response (AID 602369); assay type: functional
[18] = biological target: Peroxisome proliferator-activated receptor gamma/Nuclear receptor coactivator 2 (Homo sapiens, UniProt P37231); test: (§1) TR-FRET dose response biochemical High Throughput Screening assay for agonists of the steroid receptor coactivator 2 (SRC-2) recruitment by the peroxisome proliferator-activated receptor gamma (PPAR gamma): non-selective agonists. [Related pubchem assays: 1297, 1032 ]; assay type: functional
[19] = RAM pathway signaling blockade in S. cerevisiae – dose response (AID 1307); assay type: functional
[20] = biological target: 72 kDa type IV collagenase (Homo sapiens, UniProt P08253); test: Dose Response validation of uHTS RPN11 inhibitor hits using a MMP-2 Fluorescence assay.; assay type: functional
[21] = biological target: Peroxisome proliferator-activated receptor gamma/Nuclear receptor coactivator 3 (Homo sapiens, UniProt P37231); test: as §1, with “3 (SRC-3)” for “2 (SRC-2)”, “1301 (Confirmation screen.), 1048 (Primary screen.)]” for “1297, 1032 ]”; assay type: functional
[22] = biological target: Peroxisome proliferator-activated receptor gamma/Nuclear receptor coactivator 1 (Homo sapiens, UniProt P37231); test: as §1, with “1 (SRC-1)” for “2 (SRC-2)”, “assays (depositor defined):AID1300, AID1808, AID504735, AID631]” for “assays: 1297, 1032 ]”; assay type: protein assay
[23] = biological target: 26S proteasome non-ATPase regulatory subunit 14 (Homo sapiens, UniProt O00487); test: inhibition of proteasome subunit RPN11 – biochemical, fluorescence polarization, uHTS hits, confirmation (AID 602368); assay type: functional
NADPH oxidase 1 = NADPH oxidase 1 (Homo sapiens, UniProt Q9Y5S8); assay type: functional, cell-based;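 note: Cell-based assay with luminescence read-out, IC50 derived from inhibitor dose-response curves; intracellular ROS from endogenous NOX1 in intact HT29 colon cancer cells; potency of inhibitors that lower the ROS luminescence signal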
[24] = biological target: Sphingosine 1-phosphate receptor 2 (Homo sapiens, UniProt O95136); test: Dose Response Cell Based Assay for Agonists of the S1P2 Receptor of Purchased Analogues. [Related pubchem assays: 729, 843, 854, 736 ]; assay type: functional
[25] = biological target: T8, Endoribonuclease toxin MazF (Escherichia coli K-12, UniProt P0AE70); test: activation of MazEF endoribonuclease cleavage – biochemical, fluorescence, single-stranded RNA substrate, uHTS hits, dose response (AID 588481); assay type: functional
T8 sequence (P0AE70 whole entry): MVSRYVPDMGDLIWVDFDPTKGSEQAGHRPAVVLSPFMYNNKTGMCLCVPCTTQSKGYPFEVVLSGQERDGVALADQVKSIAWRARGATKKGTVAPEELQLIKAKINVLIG

[26] = biological target: T8, Endoribonuclease toxin MazF; test: substrate-only fluorescence increase artefacts – biochemical, single-stranded RNase substrate, counter-screen for MazEF activator project, dose response (AID 588502); assay type: functional
[27] = Late stage counterscreen results from the probe development effort to identify activators of signal transducer and activator of transcription 1 (STAT1): luminescence-based cell-based dose response assay to identify cytotoxic compounds.; assay type: functional

T7 sequence (Q92731 whole entry): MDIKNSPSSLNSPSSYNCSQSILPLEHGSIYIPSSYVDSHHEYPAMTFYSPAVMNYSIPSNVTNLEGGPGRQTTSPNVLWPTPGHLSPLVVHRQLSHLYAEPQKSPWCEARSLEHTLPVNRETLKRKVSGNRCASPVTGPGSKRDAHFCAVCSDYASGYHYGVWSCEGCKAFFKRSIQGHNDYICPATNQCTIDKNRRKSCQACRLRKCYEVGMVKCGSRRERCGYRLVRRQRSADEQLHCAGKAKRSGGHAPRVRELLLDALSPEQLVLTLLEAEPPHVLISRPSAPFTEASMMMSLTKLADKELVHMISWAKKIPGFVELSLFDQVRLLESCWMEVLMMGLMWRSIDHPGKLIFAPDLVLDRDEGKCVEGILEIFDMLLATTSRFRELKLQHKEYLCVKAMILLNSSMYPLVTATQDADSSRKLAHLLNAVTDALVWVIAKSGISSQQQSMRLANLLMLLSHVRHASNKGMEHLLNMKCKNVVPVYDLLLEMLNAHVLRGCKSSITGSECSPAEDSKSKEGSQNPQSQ
T2 sequence (P11940 whole entry): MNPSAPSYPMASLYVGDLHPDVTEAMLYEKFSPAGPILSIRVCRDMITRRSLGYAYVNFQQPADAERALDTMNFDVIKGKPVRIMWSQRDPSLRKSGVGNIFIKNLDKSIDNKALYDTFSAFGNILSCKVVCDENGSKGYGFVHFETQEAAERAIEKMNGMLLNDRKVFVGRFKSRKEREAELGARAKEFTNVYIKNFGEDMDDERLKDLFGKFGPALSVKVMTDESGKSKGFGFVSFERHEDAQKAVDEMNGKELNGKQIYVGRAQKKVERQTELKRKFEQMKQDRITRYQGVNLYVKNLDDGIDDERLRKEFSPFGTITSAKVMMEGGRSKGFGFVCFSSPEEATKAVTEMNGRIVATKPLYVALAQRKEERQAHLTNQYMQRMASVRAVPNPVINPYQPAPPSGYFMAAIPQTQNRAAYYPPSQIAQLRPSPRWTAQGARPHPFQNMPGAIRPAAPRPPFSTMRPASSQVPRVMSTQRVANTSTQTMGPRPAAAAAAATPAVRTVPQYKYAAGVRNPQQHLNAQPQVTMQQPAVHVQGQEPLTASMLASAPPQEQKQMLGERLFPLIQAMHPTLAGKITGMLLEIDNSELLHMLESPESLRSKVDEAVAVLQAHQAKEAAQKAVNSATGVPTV
T5 sequence (Q07820 whole entry): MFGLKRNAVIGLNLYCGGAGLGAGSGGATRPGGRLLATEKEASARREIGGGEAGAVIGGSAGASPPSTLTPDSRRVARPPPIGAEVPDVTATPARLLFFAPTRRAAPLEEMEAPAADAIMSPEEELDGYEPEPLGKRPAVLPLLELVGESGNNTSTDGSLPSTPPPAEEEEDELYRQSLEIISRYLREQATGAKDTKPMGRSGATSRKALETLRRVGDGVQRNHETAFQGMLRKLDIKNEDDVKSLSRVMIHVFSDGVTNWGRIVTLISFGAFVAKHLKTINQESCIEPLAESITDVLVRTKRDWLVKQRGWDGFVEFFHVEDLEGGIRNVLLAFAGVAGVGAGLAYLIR
Sequence of Nonstructural protein 1 (Q194T2 whole entry): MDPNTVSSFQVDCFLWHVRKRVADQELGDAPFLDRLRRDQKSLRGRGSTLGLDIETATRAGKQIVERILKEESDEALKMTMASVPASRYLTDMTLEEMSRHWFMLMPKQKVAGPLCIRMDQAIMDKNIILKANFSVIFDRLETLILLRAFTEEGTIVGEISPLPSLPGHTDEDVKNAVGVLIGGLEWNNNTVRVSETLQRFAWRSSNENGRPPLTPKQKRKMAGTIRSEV
Sequence of Cytochrome P450 2D6 (P10635 whole entry): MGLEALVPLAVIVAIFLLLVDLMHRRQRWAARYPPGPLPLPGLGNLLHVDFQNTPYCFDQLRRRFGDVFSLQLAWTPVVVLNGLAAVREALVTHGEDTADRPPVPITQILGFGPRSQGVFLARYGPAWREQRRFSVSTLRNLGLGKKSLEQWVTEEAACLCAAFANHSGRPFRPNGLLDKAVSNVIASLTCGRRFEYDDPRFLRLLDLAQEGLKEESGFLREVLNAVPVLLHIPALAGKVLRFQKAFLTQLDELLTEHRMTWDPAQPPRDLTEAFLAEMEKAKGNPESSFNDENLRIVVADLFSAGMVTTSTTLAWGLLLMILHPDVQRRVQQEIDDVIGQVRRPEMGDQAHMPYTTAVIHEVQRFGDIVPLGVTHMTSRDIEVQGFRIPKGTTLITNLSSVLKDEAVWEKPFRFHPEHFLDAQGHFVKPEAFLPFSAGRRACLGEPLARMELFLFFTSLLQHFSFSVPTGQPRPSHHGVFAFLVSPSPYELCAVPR
Sequence of Sphingosine 1-phosphate receptor 2 (O95136 whole entry): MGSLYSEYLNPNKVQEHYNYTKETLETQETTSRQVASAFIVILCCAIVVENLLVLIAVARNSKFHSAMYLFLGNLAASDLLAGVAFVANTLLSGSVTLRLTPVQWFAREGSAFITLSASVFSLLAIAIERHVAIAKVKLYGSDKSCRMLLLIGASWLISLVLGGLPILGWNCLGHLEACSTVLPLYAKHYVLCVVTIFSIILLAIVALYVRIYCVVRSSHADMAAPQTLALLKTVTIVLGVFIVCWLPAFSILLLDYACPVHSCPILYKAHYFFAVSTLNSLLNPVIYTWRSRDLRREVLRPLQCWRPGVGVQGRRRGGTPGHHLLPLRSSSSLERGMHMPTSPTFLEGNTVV
Sequence of 72 kDa type IV collagenase (P08253 whole entry): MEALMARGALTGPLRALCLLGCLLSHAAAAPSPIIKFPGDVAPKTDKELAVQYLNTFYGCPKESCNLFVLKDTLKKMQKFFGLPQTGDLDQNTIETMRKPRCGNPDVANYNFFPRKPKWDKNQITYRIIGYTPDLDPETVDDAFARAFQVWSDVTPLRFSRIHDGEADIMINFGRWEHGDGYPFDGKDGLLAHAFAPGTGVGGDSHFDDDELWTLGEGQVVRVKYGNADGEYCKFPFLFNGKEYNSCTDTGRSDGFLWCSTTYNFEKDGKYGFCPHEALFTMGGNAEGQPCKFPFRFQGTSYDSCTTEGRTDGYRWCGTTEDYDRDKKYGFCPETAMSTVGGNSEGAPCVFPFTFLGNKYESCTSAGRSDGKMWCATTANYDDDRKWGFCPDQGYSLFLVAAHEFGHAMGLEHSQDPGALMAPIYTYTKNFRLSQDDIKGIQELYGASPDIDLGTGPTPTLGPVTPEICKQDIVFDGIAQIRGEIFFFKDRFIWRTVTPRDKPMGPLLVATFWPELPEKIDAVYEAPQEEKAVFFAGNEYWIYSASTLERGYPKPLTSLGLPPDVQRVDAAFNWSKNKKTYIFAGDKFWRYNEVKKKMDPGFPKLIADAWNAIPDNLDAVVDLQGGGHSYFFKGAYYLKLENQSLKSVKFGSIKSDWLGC
Sequence of Genome polyprotein (P29990 2492-3391 limits assumed): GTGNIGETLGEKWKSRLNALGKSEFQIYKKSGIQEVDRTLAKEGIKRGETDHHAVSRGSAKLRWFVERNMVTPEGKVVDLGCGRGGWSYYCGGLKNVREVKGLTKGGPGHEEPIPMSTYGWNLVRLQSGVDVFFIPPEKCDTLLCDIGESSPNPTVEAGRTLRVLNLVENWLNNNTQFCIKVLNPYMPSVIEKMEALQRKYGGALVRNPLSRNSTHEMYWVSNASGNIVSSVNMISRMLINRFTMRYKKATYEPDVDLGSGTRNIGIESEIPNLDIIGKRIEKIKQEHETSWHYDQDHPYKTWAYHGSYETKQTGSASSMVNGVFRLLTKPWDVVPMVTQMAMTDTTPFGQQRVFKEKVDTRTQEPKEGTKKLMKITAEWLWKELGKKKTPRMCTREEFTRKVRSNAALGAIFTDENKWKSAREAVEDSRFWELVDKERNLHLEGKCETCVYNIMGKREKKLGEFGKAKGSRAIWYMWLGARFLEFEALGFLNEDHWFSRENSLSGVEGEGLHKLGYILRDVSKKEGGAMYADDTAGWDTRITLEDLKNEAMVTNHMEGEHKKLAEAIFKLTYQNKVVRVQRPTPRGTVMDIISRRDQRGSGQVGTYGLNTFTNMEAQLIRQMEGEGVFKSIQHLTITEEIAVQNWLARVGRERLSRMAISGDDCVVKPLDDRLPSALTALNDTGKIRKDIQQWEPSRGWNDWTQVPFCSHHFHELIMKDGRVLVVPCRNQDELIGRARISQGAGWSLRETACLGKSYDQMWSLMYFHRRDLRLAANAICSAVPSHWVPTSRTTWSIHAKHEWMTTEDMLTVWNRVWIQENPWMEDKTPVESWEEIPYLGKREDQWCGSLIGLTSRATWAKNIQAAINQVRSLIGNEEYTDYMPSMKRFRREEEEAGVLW
Sequence of Bcl-2-like protein 1 (Q07817 whole entry): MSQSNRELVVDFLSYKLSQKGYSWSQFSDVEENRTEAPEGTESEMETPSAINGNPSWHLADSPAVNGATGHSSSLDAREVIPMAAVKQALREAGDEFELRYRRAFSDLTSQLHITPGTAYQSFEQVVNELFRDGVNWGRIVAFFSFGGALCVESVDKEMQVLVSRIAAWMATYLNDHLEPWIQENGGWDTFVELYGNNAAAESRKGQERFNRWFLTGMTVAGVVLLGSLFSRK
Sequence of NADPH oxidase 1 (Q9Y5S8 whole entry): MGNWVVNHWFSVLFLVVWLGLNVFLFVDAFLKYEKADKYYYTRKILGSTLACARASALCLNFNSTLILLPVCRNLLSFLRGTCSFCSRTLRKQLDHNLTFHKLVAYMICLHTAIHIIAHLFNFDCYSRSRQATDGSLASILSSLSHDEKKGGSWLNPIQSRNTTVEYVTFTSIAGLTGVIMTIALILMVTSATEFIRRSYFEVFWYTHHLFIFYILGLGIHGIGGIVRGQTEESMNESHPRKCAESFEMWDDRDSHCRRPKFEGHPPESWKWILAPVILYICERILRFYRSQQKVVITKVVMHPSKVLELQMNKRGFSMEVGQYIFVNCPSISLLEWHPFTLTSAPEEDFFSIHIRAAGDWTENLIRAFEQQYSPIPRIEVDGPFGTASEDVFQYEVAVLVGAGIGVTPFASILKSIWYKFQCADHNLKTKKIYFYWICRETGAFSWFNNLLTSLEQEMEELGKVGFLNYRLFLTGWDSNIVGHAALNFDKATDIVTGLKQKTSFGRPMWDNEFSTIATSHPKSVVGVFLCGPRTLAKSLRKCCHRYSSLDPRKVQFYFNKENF

For `Oc1ccc(CN2CCCc3ccccc32)c2cccnc12`, the EC50 [1] was 29 µM (active), the IC50 [2] was > 66 µM (inactive) and the AC50 [3] was 5.4 µM (active). The AC50 (INS1) was 11.8 µM (active), the IC50 (Nonstructural protein 1) was 32.2 µM (active) and the IC50 [4] was > 50 µM (not active). For the same molecule, the AC50 [5] was 8.25 µM (active), the IC50 [6] was > 66 µM (inactive) and the AC50 [7] was 17.3 µM (active). For the same molecule, the IC50 [8] was > 50 µM (not active).

For `Cn1c(SCC(=O)Nc2ccc3nc(SCC(=O)N4CCCC4)sc3c2)nnc1-c1ccc(N)cc1`, the IC50 (Bcl-2-like protein 10) was 58.3 µM (inactive), the IC50 [9] was 2.5 µM (active) and the IC50 [10] was 1.82 µM (active).

In the case of `CCc1sc(C(C2C(=O)CC(C)(C)CC2=O)C2C(=O)CC(C)(C)CC2=O)cc1[N+](=O)[O-]`, the IC50 [11] is reported as 6.08 µM (active), the IC50 (Genome polyprotein) is reported as 16.4 µM (active) and the IC50 (Bcl-2-like protein 1) is reported as > 109 µM (not active).

With `CCn1c(SCC(=O)N2CCOCC2)nc2oc3c(Cl)cc(Cl)cc3c(=O)c2c1=O` the EC50 [12] was 16.1 µM (inconclusive), the AC50 (Cytochrome P450 2D6) was 15.8 µM (inconclusive) and the IC50 [13] was > 100 µM (not active). For the same molecule, the IC50 (Estrogen receptor beta [14]) was 17.2 µM (active), the IC50 (Estrogen receptor beta [15]) was 13.3 µM (not active) and the EC50 [16] was > 20 µM (not active). For the same molecule, the EC50 [17] was > 20 µM (not active).

For `CN(C)c1ccc(/C=C/C=C2/C(=O)NC(=O)N(c3ccccc3)C2=O)cc1`, the IC50 (Prothrombin) was 19.6 µM (active), the EC50 [18] was 4.13 µM (active) and the IC50 [19] was 317 µM (active). The IC50 [20] was 71.2 µM (active), the IC50 (Nonstructural protein 1) was 12.1 µM (active) and the EC50 [21] was > 79.4 µM (not active). The EC50 [22] was > 2.94 µM (inactive) and the IC50 [23] was 28.2 µM (active).

In the case of `O=C(CCC(=O)Nc1ccccc1)Nc1ccccc1`, the IC50 (NADPH oxidase 1) is reported as > 17 µM (not active).

With `Cc1cc(C(=O)Cn2cnc3c(oc4ccccc43)c2=O)c(C)n1Cc1ccccc1` the EC50 [24] was > 30 µM (not active).

In the case of `CCN(CC)c1ccc2cc(C(=O)Nc3ccccn3)c(=O)oc2c1`, the EC50 [25] is reported as > 99 µM (inactive), the EC50 [26] is reported as > 99 µM (inactive) and the IC50 [27] is reported as > 55.7 µM (not active).
